Measurements published in US20210283073A1, “AGENT FOR INHIBITING RECURRENCE OF HEM[…] PATIENTS WHO HAVE UNDERGONE HEMATOPOIETIC STEM CELL TRANSPLANTATION” (Priothera Limited, priority 2018, published 2021).
Where two headings read alike, the source gives them in different places.

System: patients who have undergone hematopoietic stem cell transplantation for the treatment of hematological malignancies
Settings: for number of days of recurrence of hematological malignancies / number of days of death: days from allogeneic HSCT; for Recurrence rate / Survival rate: one year after allogeneic HSCT
Procedure: The clinical tests were performed as described below
The following four types of immunosuppressants were used in the clinical tests. • 2-Amino-2-[4-(3-benzyloxyphenylthio)-2-chlorophenyl] ethyl-propane-1,3-diol hydrochloride (prepared as capsules containing 0.5, 1, 2, 3, 4, or 5 mg in terms of 2-amino-2-[4-(3-benzyloxyphenylthio)-2-chlorophenyl] ethyl-propane-1,3-diol)) • Methotrexate • Cyclosporin A • Tacrolimus
23 patients participated in the clinical tests.
The clinical tests was carried out according to the following schedule. However, changes were made appropriately depending on the condition of the patient and the like.
A: Screening (from the −50th day to the −2nd day), Baseline (the −1st day)
B: Treatment with 2-amino-2-[4-(3-benzyloxyphenylthio)-2-chlorophenyl] ethyl-propane-1,3-diol hydrochloride (from the 1st day to the 111th day)
B′: Treatment with other immunosuppressants (according to hospital standards, and the like)
C: Conditioning regimen (from the 2nd day to the 10th day)
D: Allogeneic hematopoietic stem cell transplantation (the 11th day)
E: Follow-up (from the 12th day to the 376th day), additional follow-up (from the 377th day)
A predetermined amount of 2-amino-2-[4-(3-benzyloxyphenylthio)-2-chlorophenyl] ethyl-propane-1,3-diol hydrochloride was administered to the patients once a day, as well as, other immunosuppressants were administered to the patients on a dosing schedule and dosage according to the hospital standards and the like. The daily dosage of 2-amino-2-[4-(3-benzyloxyphenylthio)-2-chlorophenyl] ethyl-propane-1,3-diol hydrochloride administered to each patient (value in terms of 2-amino-2-[4-(3-benzyloxyphenylthio)-2-chlorophenyl] ethyl-propane-1,3-diol, the same is applied to the descriptions hereinafter), the administration period of time, and the types of the other immunosuppressants are shown in Table 2 (KRP: 2-amino-2-[4-(3-benzyloxyphenylthio)-2-chlorophenyl] ethyl-propane-1,3-diol hydrochloride, MTX: methotrexate, CyA: cyclosporin A, and Tac: tacrolimus).
The conditions of patients who underwent allogeneic hematopoietic stem cell transplantation were subjected to following up for a certain period of time. In the table, the follow-up period, the number of days of recurrence of hematological malignancies and the number of days of death represent the number of days passing from the day when allogeneic hematopoietic stem cell transplantation was performed. The survival rate and recurrence rate were calculated in accordance with the Kaplan-Meier method.

[1] = Patient No. 1, Multiple myeloma, KRP 3 mg + MTX + CyA, KRP 34 days, follow-up 749 days
[2] = Patient No. 2, Acute lymphocytic leukemia, KRP 3 mg + MTX + CyA, KRP 108 days, follow-up 731 days
[3] = Patient No. 3, Acute lymphocytic leukemia, KRP 3 mg + MTX + CyA, KRP 107 days, follow-up 734 days
[4] = Patient No. 4, Myelodysplasia syndrome, KRP 3 mg + MTX + CyA, KRP 35 days, follow-up 532 days
[5] = Patient No. 4, Myelodysplasia syndrome, KRP 3 mg + MTX + CyA, KRP 35 days
[6] = Patient No. 5, B-cell lymphoma, KRP 3 mg + MTX + CyA, KRP 111 days, follow-up 819 days
[7] = Patient No. 6, Acute myeloid leukemia, KRP 3 mg + MTX + CyA, KRP 107 days, follow-up 347 days
[8] = Patient No. 7, Acute lymphocytic leukemia, KRP 3 mg + MTX + CyA, KRP 98 days, follow-up 727 days
[9] = Patient No. 8, Myelodysplasia syndrome, KRP 3 mg + MTX + CyA, KRP 111 days, follow-up 704 days
[10] = Patient No. 9, Acute myeloid leukemia, KRP 3 mg + MTX + CyA, KRP 86 days, follow-up 728 days
[11] = Patient No. 10, Acute myeloid leukemia, KRP 3 mg + MTX + CyA, KRP 111 days, follow-up 876 days
[12] = Patient No. 10, Acute myeloid leukemia, KRP 3 mg + MTX + CyA, KRP 111 days
[13] = Patient No. 11, Chronic myeloid leukemia, KRP 1 mg + MTX + CyA, KRP 111 days, follow-up 617 days
[14] = Patient No. 12, Myelodysplasia syndrome, KRP 3 mg + MTX + Tac, KRP 79 days, follow-up 110 days
[15] = Patient No. 12, Myelodysplasia syndrome, KRP 3 mg + MTX + Tac, KRP 79 days
[16] = Patient No. 13, Acute lymphocytic leukemia, KRP 1 mg + MTX + CyA, KRP 43 days, follow-up 326 days
[17] = Patient No. 13, Acute lymphocytic leukemia, KRP 1 mg + MTX + CyA, KRP 43 days
[18] = Patient No. 14, Acute myeloid leukemia, KRP 1 mg + MTX + CyA, KRP 111 days, follow-up 669 days
[19] = Patient No. 15, Chronic myeloid leukemia, KRP 3 mg + MTX + Tac, KRP 111 days, follow-up 554 days
[20] = Patient No. 16, Acute myeloid leukemia, KRP 3 mg + MTX + Tac, KRP 117 days, follow-up 375 days
[21] = Patient No. 17, Acute myeloid leukemia, KRP 3 mg + MTX + Tac, KRP 111 days, follow-up 246 days
[22] = Patient No. 18, Myelofibrosis, KRP 3 mg + MTX + Tac, KRP 111 days, follow-up 310 days
[23] = Patient No. 18, Myelofibrosis, KRP 3 mg + MTX + Tac, KRP 111 days
[24] = Patient No. 19, Acute myeloid leukemia, KRP 1 mg + MTX + CyA, KRP 24 days, follow-up 99 days
[25] = Patient No. 20, Chronic myeloid leukemia, KRP 1 mg + MTX + CyA, KRP 111 days, follow-up 193 days
[26] = Patient No. 21, Non-hodgkin lymphoma/Hodgkin disease, KRP 3 mg + MTX + Tac, KRP 62 days, follow-up 79 days
[27] = Patient No. 21, Non-hodgkin lymphoma/Hodgkin disease, KRP 3 mg + MTX + Tac, KRP 62 days
[28] = Patient No. 22, Non-hodgkin lymphoma/Hodgkin disease, KRP 3 mg + MTX + Tac, KRP 107 days, follow-up 264 days
[29] = Patient No. 22, Non-hodgkin lymphoma/Hodgkin disease, KRP 3 mg + MTX + Tac, KRP 107 days
[30] = Patient No. 23, Chronic myeloid leukemia, KRP 1 mg + MTX + CyA, KRP 111 days, follow-up 264 days
[31] = all 23 patients, KRP 1 or 3 mg/day + MTX + CyA or Tac, Kaplan-Meier
[32] = Chronic myeloid leukemia, 4 patients
[33] = KRP 1 mg + MTX + CyA, 6 patients
[34] = KRP 3 mg + MTX + CyA, 10 patients, hydrochloride
[35] = KRP 3 mg + MTX + CyA, 10 patients, listed as 2-amino-2-[4-(3-benzyloxyphenylthio)-2-chlorophenyl] ethyl-propane-1,3-diol, hydrochloride
[36] = KRP 3 mg + MTX + Tac, 7 patients
[37] = Myelodysplasia syndrome, 3 patients
[38] = Non-hodgkin lymphoma/Hodgkin disease, 2 patients
[39] = administration period 80 days or more, 17 patients, hydrochloride
[40] = administration period 80 days or more, 17 patients, listed as 2-amino-2-[4-(3-benzyloxyphenylthio)-2-chlorophenyl] ethyl-propane-1,3-diol, hydrochloride
[41] = administration period 100 days or more, 15 patients, hydrochloride
[42] = administration period 100 days or more, 15 patients, listed as 2-amino-2-[4-(3-benzyloxyphenylthio)-2-chlorophenyl] ethyl-propane-1,3-diol, hydrochloride

In the case of `Cl.NC(CO)(CO)CCc1ccc(Sc2cccc(OCc3ccccc3)c2)cc1Cl` [KRP, 2-amino-2-[4-(3-benzyloxyphenylthio)-2-chlorophenyl] ethyl-propane-1,3-diol hydrochloride], the Alive/dead [1] is reported as “Alive”, the “Yes/No of recurrence of hematological malignancy” value [1] is reported as “Yes” and the “number of days of recurrence of hematological malignancies” value (“number … of hematological malignancies” for short) (Patient No. 1, Multiple myeloma, KRP 3 mg + MTX + CyA, KRP 34 days) is reported as “(749th day)”. The Alive/dead [2] was “Alive”, the “Yes/No of recurrence of hematological malignancy” value [2] was “No” and the Alive/dead [3] was “Alive”. For the same compound, the “Yes/No of recurrence of hematological malignancy” value [3] was “No”, the Alive/dead [4] was “Dead” and the “Yes/No of recurrence of hematological malignancy” value [4] was “Yes”. For the same compound, the “number of days of death” value [5] was “(532nd day)”, the “number … of hematological malignancies” value [5] was “(287th day)” and the Alive/dead [6] was “Alive”. For the same compound, the “Yes/No of recurrence of hematological malignancy” value [6] was “No”, the Alive/dead [7] was “Alive” and the “Yes/No of recurrence of hematological malignancy” value [7] was “No”. The Alive/dead [8] was “Alive”, the “Yes/No of recurrence of hematological malignancy” value [8] was “No” and the Alive/dead [9] was “Alive”. The “Yes/No of recurrence of hematological malignancy” value [9] was “No”, the Alive/dead [10] was “Alive” and the “Yes/No of recurrence of hematological malignancy” value [10] was “Yes”. For the same compound, the “number … of hematological malignancies” value (Patient No. 9, Acute myeloid leukemia, KRP 3 mg + MTX + CyA, KRP 86 days) was “(102nd day)”, the Alive/dead [11] was “Dead” and the “Yes/No of recurrence of hematological malignancy” value [11] was “Yes”. The “number of days of death” value [12] was “(876th day)”, the “number … of hematological malignancies” value [12] was “(757th day)” and the Alive/dead [13] was “Alive”. For the same compound, the “Yes/No of recurrence of hematological malignancy” value [13] was “No”, the Alive/dead [14] was “Dead” and the “Yes/No of recurrence of hematological malignancy” value [14] was “Yes”. For the same compound, the “number of days of death” value [15] was “(110th day)”, the “number … of hematological malignancies” value [15] was “(110th day)” and the Alive/dead [16] was “Dead”. The “Yes/No of recurrence of hematological malignancy” value [16] was “Yes”, the “number of days of death” value [17] was “(326th day)” and the “number … of hematological malignancies” value [17] was “(252nd day)”. For the same compound, the Alive/dead [18] was “Alive”, the “Yes/No of recurrence of hematological malignancy” value [18] was “No” and the Alive/dead [19] was “Alive”. For the same compound, the “Yes/No of recurrence of hematological malignancy” value [19] was “No”, the Alive/dead [20] was “Alive” and the “Yes/No of recurrence of hematological malignancy” value [20] was “No”. For the same compound, the Alive/dead [21] was “Alive”, the “Yes/No of recurrence of hematological malignancy” value [21] was “Yes” and the “number … of hematological malignancies” value (Patient No. 17, Acute myeloid leukemia, KRP 3 mg + MTX + Tac, KRP 111 days) was “(98th day)”. The Alive/dead [22] was “Dead”, the “Yes/No of recurrence of hematological malignancy” value [22] was “Yes” and the “number of days of death” value [23] was “(310th day”. For the same compound, the “number … of hematological malignancies” value [23] was “(105th day)”, the Alive/dead [24] was “Alive” and the “Yes/No of recurrence of hematological malignancy” value [24] was “Yes”. The “number … of hematological malignancies” value (Patient No. 19, Acute myeloid leukemia, KRP 1 mg + MTX + CyA, KRP 24 days) was “(77th day)”, the Alive/dead [25] was “Alive” and the “Yes/No of recurrence of hematological malignancy” value [25] was “No”. For the same compound, the Alive/dead [26] was “Dead”, the “Yes/No of recurrence of hematological malignancy” value [26] was “Yes” and the “number of days of death” value [27] was “(79th day”. The “number … of hematological malignancies” value [27] was “(49th day)”, the Alive/dead [28] was “Dead” and the “Yes/No of recurrence of hematological malignancy” value [28] was “Yes”. For the same compound, the “number of days of death” value [29] was “(264th day”, the “number … of hematological malignancies” value [29] was “(121st day)” and the Alive/dead [30] was “Alive”. The “Yes/No of recurrence of hematological malignancy” value [30] was “No”, the “recurrence rate of hematologic malignancy one year after allogeneic hematopoietic stem cell transplantation” value [31] was 40% and the “survival rate of the patients one year after allogeneic hematopoietic stem cell transplantation” value [31] was 75%. The Recurrence rate (Acute lymphocytic leukemia, 4 patients) was 25%, the Survival rate (Acute lymphocytic leukemia, 4 patients, hydrochloride) was 75% and the Survival rate (Acute lymphocytic leukemia, 4 patients, listed as 2-amino-2-[4-(3-benzyloxyphenylthio)-2-chlorophenyl] ethyl-propane-1,3-diol, hydrochloride) was 75%. It also gave a Recurrence rate (Acute myeloid leukemia, 7 patients) of 43%, a Survival rate (Acute myeloid leukemia, 7 patients, hydrochloride) of 100% and a Survival rate (Acute myeloid leukemia, 7 patients, listed as 2-amino-2-[4-(3-benzyloxyphenylthio)-2-chlorophenyl] ethyl-propane-1,3-diol, hydrochloride) of 100%. For the same compound, the Recurrence rate (B-cell lymphoma, 1 patient) was 0%, the Survival rate (B-cell lymphoma, 1 patient) was 100% and the Recurrence rate [32] was 0%. For the same compound, the Survival rate [32] was 100%, the Recurrence rate [33] was 38% and the Survival rate [33] was 67%. For the same compound, the Recurrence rate [34] was 20%, the Survival rate [34] was 100% and the Recurrence rate [35] was 20%. The Survival rate [35] was 100%, the Recurrence rate [36] was 71% and the Survival rate [36] was 36%. It also gave a Recurrence rate (Multiple myeloma, 1 patient) of 0%, a Survival rate (Multiple myeloma, 1 patient) of 100% and a Recurrence rate [37] of 67%. For the same compound, the Survival rate [37] was 67%, the Recurrence rate (Myelofibrosis, 1 patient) was 100% and the Survival rate (Myelofibrosis, 1 patient) was 0%. For the same compound, the Recurrence rate [38] was 100%, the Survival rate [38] was 0% and the Recurrence rate (administration period 60 days or more, 19 patients) was 32%. For the same compound, the Survival rate (administration period 60 days or more, 19 patients, hydrochloride) was 77%, the Survival rate (administration period 60 days or more, 19 patients, listed as 2-amino-2-[4-(3-benzyloxyphenylthio)-2-chlorophenyl] ethyl-propane-1,3-diol, hydrochloride) was 77% and the Recurrence rate [39] was 24%. For the same compound, the Survival rate [39] was 86%, the Recurrence rate [40] was 24% and the Survival rate [40] was 86%. It also gave a Recurrence rate [41] of 20%, a Survival rate [41] of 84% and a Recurrence rate [42] of 20%. It also gave a Survival rate [42] of 84%.
